Results taken from publication PMC10844371 (Diabetologia, 2023).
“And” between values parts separate entries of the source, which are not always exact repeats. Identical values can stand only once.

What was measured:
[1] = test system: human pancreatic islets; assay: Glucagon secretion in human islets (ELISA); format: cell-based
Description: Human pancreatic islets were isolated (with ethical approval and clinical consent) as previously described. Islets from the pancreases of 18 healthy donors and five donors with type 2 diabetes were used (see electronic supplementary material [ESM] Table 1; ESM Human islets checklist).
(§1) Mouse islets were used acutely, except for studies with PTX, wherein islets were treated overnight with the toxin. Human islets were maintained in culture for up to 48 h in RPMI medium containing 10% (vol./vol.) FCS, 1% (vol./vol.) penicillin/streptomycin and 5 mmol/l glucose. Experiments were conducted as previously described. Islets were incubated in 0.3 ml EC1 or EC2 media (ESM Table 2) supplemented with glucose and other reagents as indicated. Glucagon was determined by ELISA (Mercodia).
All data are reported, unless otherwise stated, as mean values ± SEM for the indicated number of experiments using islets from multiple mice. For hormone release studies, islets were isolated and pooled from 4–16 mice. These islets were then subdivided into groups of 12–20 size-matched islets. Each unique set of islets counted as an experiment with the experiments repeated on 2–4 days. Similarly, each unique group of human islets was treated as an experiment. […] In the Ca^2+ imaging and granule docking experiment, each cell represents an experiment making sure that cells from multiple donors/animals were used. For the in vivo experiments and the perfused pancreas, each mouse count represents an experiment. For two groupings, a t test was conducted. For multiple comparisons, one-way ANOVA was conducted. All statistical tests were performed using Graphpad Prism (version 9.1.0; graphpad.com). It was ascertained that the data were normally distributed.

[2] = test system: isolated mouse pancreatic islets; assay: Somatostatin secretion in isolated mouse islets (RIA); format: cell-based; conditions: 10–10,000 pmol/l, 1 mmol/l glucose
Description: as §1
(§2) Insulin and somatostatin were determined by RIA (Millipore and Diasource ImmunoAssays, respectively) as described previously. In these experiments, rates of release are expressed as % of contents unless otherwise indicated.

[3] = test system: isolated mouse pancreatic islets; assay: Insulin secretion in isolated mouse islets (RIA); format: cell-based
Description: Mouse islets were used acutely, except for studies with PTX, wherein islets were treated overnight with the toxin. Human islets were maintained in culture for up to 48 h in RPMI medium containing 10% (vol./vol.) FCS, 1% (vol./vol.) penicillin/streptomycin and 5 mmol/l glucose. Experiments were conducted as previously described. Islets were incubated in 0.3 ml EC1 or EC2 media (ESM Table 2) supplemented with glucose and other reagents as indicated.
as §2

[4] = target: T1, human GCGR expressed in HEK293T cells (Homo sapiens, UniProt P47871); assay: G protein dissociation (TRUPATH BRET2 biosensor); format: cell-based
T1 construct: expressed in transfected cells; host or cells: HEK293T (ATCC CRL-3216)
T1 sequence (P47871 26-477): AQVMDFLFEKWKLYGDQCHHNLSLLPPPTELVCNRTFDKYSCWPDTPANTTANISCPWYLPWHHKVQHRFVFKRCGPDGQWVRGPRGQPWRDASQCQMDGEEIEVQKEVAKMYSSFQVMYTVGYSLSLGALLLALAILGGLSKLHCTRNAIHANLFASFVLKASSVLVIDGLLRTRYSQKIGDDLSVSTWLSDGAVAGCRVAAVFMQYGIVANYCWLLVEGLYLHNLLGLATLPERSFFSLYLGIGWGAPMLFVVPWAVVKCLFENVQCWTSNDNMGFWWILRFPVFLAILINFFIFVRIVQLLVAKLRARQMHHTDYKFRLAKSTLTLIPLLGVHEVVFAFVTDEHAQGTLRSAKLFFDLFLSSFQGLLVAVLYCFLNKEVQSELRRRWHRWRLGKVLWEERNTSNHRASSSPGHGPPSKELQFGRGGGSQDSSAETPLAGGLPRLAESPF
Description: G protein dissociation was measured using the TRUPATH biosensor platform. TRUPATH constructs were obtained from Addgene (kit no. 1000000163 [21]). […] Cells were transfected with equal amounts of GCGR, GαsS-, Gαi1-, Gαi2-, Gαi3-, GαoA-, GαoB- or Gαz-Rluc8, Gβ3, and Gγ1-, Gγ8- or Gγ9-GFP2 (as described in [21]), and pcDNA3.1(‑) using polyethyleneimine (ESM Table 3). After 24 h, cells were seeded at 50,000 cells/well of a 0.01% poly-L-lysine-coated white 96-well plate (Greiner) and grown overnight. Cells were washed with Hanks’ Balanced Salt Solution (Lonza) buffered with 20 mmol/l HEPES (Sigma) and supplemented with 0.1% BSA (Sigma) (wt/vol.). Cells were incubated in 5 μmol/l coelenterazine 400a (Nanolight Technologies) for 5 min. […] The bioluminescence resonance energy transfer 2 (BRET2) ratio was calculated (λ515/λ400) and the time point corresponding to maximal dissociation was used to generate dose–response curves. pEC50 values were calculated using the ‘three parameter log(agonist) vs response’ model in GraphPad Prism9 (version 9.1.0; graphpad.com).

[5] = test system: PKA activity in alpha cells; assay: PKA activity measurements (AKAR3) in alpha cells in intact islets; format: cell-based, mouse
Description: PKA activity was measured using AKAR3 as previously described. The cells were continuously superfused at a rate of 60 μl/min with EC4 (ESM Table 2).

[6] = test system: mouse alpha cells; assay: TIRF imaging of docked secretory granules in mouse alpha cells; format: cell-based
Description: Cells were imaged using total internal reflection fluorescence (TIRF) microscopy (AxioObserver Z1 with a ×100/1.45 objective [Carl Zeiss] and a diode-pumped solid state laser at 491 nm). For these measurements, EC1 was used (ESM Table 2). Images from cells infected with preproglucagon promoter (PPPG)-neuropeptide Y (NPY)-enhanced green fluorescent protein (EGFP) virus were recorded using an electron-multiplying charge-coupled device camera (Photometrics Evolve) using ZEN blue. Single images of cells were acquired to measure the number of docked granules. Incoming and outgoing granules during visiting, docking and undocking were determined from multiple frame movies as described previously. Candidate docking or undocking events were found manually as granules that approached the TIRF field with an axial component and became laterally confined for at least two frames. We defined docking as granules that remained confined for at least 1 min. Visitors were those granules that remained for <1 min after appearing at the plasma membrane. Undocking was defined as slow movement of a previously docked granule away from its docking site. Granule density was calculated using a script that used the built-in ‘find maxima’ function in ImageJ (version 1.53c; http://rsbweb.nih.gov/ij) for spot detection.

[7] = test system: C57Bl6N mice; assay: Plasma glucose and glucagon during insulin-induced hypoglycaemia; format: in vivo, mouse
Description: In the experiments involving the use of REMD2.59, mice were injected intraperitoneally with the antagonist (5 mg/kg body weight in PBS) or vehicle 24 h prior to insulin-induced hypoglycaemia. Following the completion of the experiment, the mice were euthanised and the pancreases were resected and weighed.

[8] = mouse, in vivo, ip
Description: C57Bl6N mice were fasted for 5 h prior to the ITTs. GLP-1(9–36) (100 µg/kg body weight) was injected intraperitoneally before or with insulin as indicated. The relative high dose of GLP-1(9–36) was used because of high basal levels of the peptide. In the control experiments, mice were injected with the saline solvent (154 mmol/l NaCl). […] Total GLP-1 was measured by ELISA (81508; Crystal Chem, Zaandam, the Netherlands; CV<10%).

CC[C@H](C)[C@H](NC(=O)[C@H](Cc1ccccc1)NC(=O)[C@H](CCC(=O)O)NC(=O)[C@H](CCCCN)NC(=O)[C@H](C)NC(=O)[C@H](C)NC(=O)[C@H](CCC(N)=O)NC(=O)CNC(=O)[C@H](CCC(=O)O)NC(=O)[C@H](CC(C)C)NC(=O)[C@H](Cc1ccc(O)cc1)NC(=O)[C@H](CO)NC(=O)[C@H](CO)NC(=O)[C@@H](NC(=O)[C@H](CC(=O)O)NC(=O)[C@H](CO)NC(=O)[C@@H](NC(=O)[C@H](Cc1ccccc1)NC(=O)[C@@H](NC(=O)CNC(=O)[C@@H](N)CCC(=O)O)[C@@H](C)O)[C@@H](C)O)C(C)C)C(=O)N[C@@H](C)C(=O)N[C@@H](Cc1c[nH]c2ccccc12)C(=O)N[C@@H](CC(C)C)C(=O)N[C@H](C(=O)N[C@@H](CCCCN)C(=O)NCC(=O)N[C@@H](CCCNC(=N)N)C(N)=O)C(C)C [GLP-1(9–36)]
inhibition of glucagon secretion ([1]; human islets, 10 pmol/l, 1 mmol/l glucose): ~ 50% | glucagonostatic effect ([1]; human islets, 6 mmol/l glucose): exerted a glucagonostatic effect | glucagonostatic effect ([1]; human islets, 20 mmol/l glucose): not at 20 mmol/l glucose | suppression of glucagon release in islets from donors with type 2 diabetes ([1]; islets from donors with type 2 diabetes): loss | effect on somatostatin secretion [2]: No stimulatory effects | effect on insulin secretion ([3]; 30 pmol/l alone, at 1 or 10 mmol/l glucose): did not increase insulin secretion | effect on insulin secretion ([3]; 10–10,000 pmol/l, mouse islets, 1 mmol/l glucose): No stimulatory effects | efficacy of GoA dissociation relative to glucagon ([4]; GCGR, GoA, HEK293T): ~ 10% | EC50 ([4]; Gα i2, mean ± S.E.M.): 501 nM | pEC50 ([4]; Gα oA, mean ± S.E.M.): 7.55±-0.52 | effect on PKA activity in the presence of L-168049 ([5]; 10 and 100 pmol/l, L-168049 100 nmol/l): without effect | inhibitory effect on PKA activity after PTX pretreatment ([5]; PTX pretreatment): abolished | concentrations at which the decrease in cAMP/PKA activity was maximal ([5]; alpha cells in intact mouse islets): > 10 pmol/L | time at which reduction of docked granules was maximal ([6]; 10 pmol/l): 10 min | reduction of the number of docked granules ([6]; 10 pmol/l, 1 mmol/l glucose, mouse alpha cells): 40% | how granule density was reduced (docking, undocking, arrival) ([6]; 10 pmol/l, during 15 min): inhibiting granule docking and stimulating granule undocking, while not affecting the rate of arrival | capacity to reduce docked granules in the presence of L-168049 ([6]; L-168049 100 nmol/l): prevented | capacity to reduce docked granules after PTX pretreatment ([6]; PTX 100 ng/ml for 16 h): prevented | capacity to reduce docked granules in the presence of exendin(9–39) ([6]; exendin(9–39) 100 nmol/l, 15 min after addition): resistant | effect on granule docking in the presence of ω-agatoxin ([6]; ω-agatoxin 200 nmol/l): no additive effect | decrease of plasma glucagon AUC during hypoglycaemia ([7]; 100 µg/kg i.p. at t=−15 min, AUC over 45 min after insulin, 13 or 14 mice): 30% and ~ 30% | effect on hypoglycaemia-triggered increase in plasma glucagon ([7]; 100 µg/kg i.p. at t=−15 min, insulin 0.75 U/kg): slightly reduced | glucagonostatic effect when administered simultaneously with insulin ([7]; co-injected with insulin 0.75 U/kg, p=0.53): No glucagonostatic effect | glucagonostatic effect in the presence of REMD2.59 ([7]; mice pretreated with REMD2.59, GLP-1(9–36) 100 µg/kg): no glucagonostatic effect | effect on basal plasma glucagon ([7]; normoglycaemic conditions, prior to insulin injection, 100 µg/kg i.p.): not affected | time for which plasma GLP-1 remained at >100 pmol/l [8]: > 45 min
